Results from patent US20100197650A1, “COMPOSITIONS AND METHODS OF TREATMENT COMPRISING CEFTAROLINE” (FOREST LABORATORIES HOLDINGS LTD., priority 2008, published 2010).
≈ marks a conversion by molar mass, not a printed value. Where two headings read alike, the source gives them in different places.

Columns and labels:
Streptococcus pyogenes = experiment: MIC, broth microdilution (Example 1); format: cell-based; details: Streptococcus pyogenes, read-out: MIC
Summary of the method: (§1)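 Broth microdilution per CLSI M7-A7; H. influenzae in Haemophilus Test Medium, streptococci in Mueller Hinton II Broth with 2% lysed horse blood, other organisms in Mueller Hinton II Broth. Two-fold serial dilutions; plates incubated 35° C ~20 hours, MIC read visually as growth/no-growth.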

Escherichia coli = experiment: MIC, broth microdilution (Example 1); format: cell-based; details: Escherichia coli, read-out: MIC
Summary of the method: as §1

Haemophilus influenzae = experiment: MIC, broth microdilution (Example 1); format: cell-based
Summary of the method: as §1

Streptococcus pneumoniae = experiment: MIC, broth microdilution (Example 1); format: cell-based; details: Streptococcus pneumoniae, read-out: MIC
Summary of the method: as §1

Pseudomonas aeruginosa = experiment: MIC, broth microdilution (Example 1); format: cell-based
Summary of the method: as §1

Enterococcus faecalis = experiment: MIC, broth microdilution (Example 1); format: cell-based
Summary of the method: as §1

Staphylococcus aureus = experiment: MIC, broth microdilution (Example 1); format: cell-based
Summary of the method: as §1

Klebsiella pneumoniae = experiment: MIC, broth microdilution (Example 1); format: cell-based
Summary of the method: as §1

Acinetobacter baumannii = experiment: MIC, broth microdilution (Example 1); format: cell-based
Summary of the method: as §1

[1] = system: ESBL-producing Klebsiella pneumoniae; experiment: Susceptibility testing MIC/MBC, broth microdilution (Example 2); format: cell-based; details: for MBC / MIC: Klebsiella pneumoniae; for MBC: read-out: MBC; for MIC: read-out: MIC
P. aeruginosa = experiment: as above; format: cell-based, Pseudomonas aeruginosa; details: for MBC / MIC: Pseudomonas aeruginosa; for MBC: read-out: MBC; for MIC: read-out: MIC
HA-MRSA = experiment: Time-kill curves at ¼ and ½ MIC (Example 3); format: cell-based, Staphylococcus aureus; details: drug alone at ½ MIC, the 2 vancomycin-susceptible MRSA, followed by regrowth
Method: Four strains, including 1 hVISA and 1 VISA, characterized by population analysis profile and Macro Etest were selected for time-kill analysis.
Trypose soy agar (TSA; Difco, Detroit, Mich.) was used for colony counting.
Four randomly selected HA-MRSA isolates were evaluated in time-kill experiments, using a starting inoculum at ˜10^6 CFU/mL and antimicrobials at ¼ and ½ MIC. Regimens included ceftaroline, vancomycin and tobramycin alone or combination of tobramycin with ceftaroline or vancomycin. […] Additivity, antagonism and indifference were defined as <2 but >1 log10 kill, >1 log10 growth and ±1 log kill, respectively.
Differences between regimens were analyzed by T-test or ANOVA with Tukey's post hoc test. […] A P value <0.05 was considered significant.

[2] = system: AmpC-derepressed Enterobacter cloacae; experiment: microbe, parasite or virus in culture; format: cell-based; details: for MBC / MIC: Enterobacter cloacae
[3] = K. pneumonia (10) clinical isolates
[4] = P. aeruginosa (20) clinical isolates
[5] = E. cloacae (10) clinical isolates

CCO/N=C(\C(=O)N[C@@H]1C(=O)N2C(C(=O)[O-])=C(Sc3nc(-c4cc[n+](C)cc4)cs3)CS[C@H]12)c1nsc(N)n1 [Ceftaroline]
MIC (Streptococcus pyogenes; S. pyogenes 0717): 8 ng/mL
MIC (Streptococcus pyogenes; S. pyogenes 0722): 8 ng/mL
MIC (Escherichia coli; E. coli 1587): 0.12 µg/mL
MIC (Escherichia coli; E. coli 2273 (ESBL)): 2 µg/mL
MIC (Haemophilus influenzae; H. influenzae 1224): 0.12 µg/mL
MIC (Haemophilus influenzae; H. influenzae 2797 (BLNAR)): 0.12 µg/mL
MIC (Haemophilus influenzae; Haemophilus influenzae, H. influenzae 1224, read-out: MIC): 0.06 µg/mL
MIC (Haemophilus influenzae; Haemophilus influenzae, H. influenzae 2797 (BLNAR), read-out: MIC): 0.06 µg/mL
MIC (Haemophilus influenzae; Haemophilus influenzae, H. influenzae 2798 (BLNAR), read-out: MIC): 0.03 µg/mL
MIC (Haemophilus influenzae; Haemophilus influenzae, H. influenzae 2799 (BLNAR), read-out: MIC): 0.03 µg/mL
MIC (Streptococcus pneumoniae; PRSP, S. pneumoniae 0876 (PRSP)): 0.12 µg/mL
MIC (Streptococcus pneumoniae; PRSP, S. pneumoniae 0877 (PRSP)): 0.12 µg/mL
MIC (Streptococcus pneumoniae; PRSP, S. pneumoniae 0880 (PRSP)): 0.12 µg/mL
MIC (Streptococcus pneumoniae; PRSP, S. pneumoniae 0884 (PRSP)): 0.12 µg/mL
MIC (Streptococcus pneumoniae; S. pneumoniae 0869 (PSSP)): 0.008 µg/mL
MIC (Pseudomonas aeruginosa; P. aeruginosa 2555): 32 µg/mL
MIC (Pseudomonas aeruginosa; P. aeruginosa 2559): 16 µg/mL
MIC (Enterococcus faecalis; E. faecalis 0796 (VSE)): 4 µg/mL
MIC (Enterococcus faecalis; Enterococcus faecalis, E. faecalis 0795 (VSE), read-out: MIC): 8 µg/mL
MIC (Enterococcus faecalis; Enterococcus faecalis, E. faecalis 0796 (VSE), read-out: MIC): 2 µg/mL
MIC (Enterococcus faecalis; Enterococcus faecalis, VRE, E. faecalis 0847 (VRE), read-out: MIC): 2 µg/mL
MIC (Enterococcus faecalis; Enterococcus faecalis, VRE, E. faecalis 0849 (VRE), read-out: MIC): 4 µg/mL
MIC (Staphylococcus aureus; S. aureus 0765 (MRSA)): 2 µg/mL
MIC (Staphylococcus aureus; Staphylococcus aureus, MRSA, S. aureus 0765 (MRSA), read-out: MIC): 1 µg/mL
MIC (Staphylococcus aureus; Staphylococcus aureus, MRSA, S. aureus 2053 (MRSA), read-out: MIC): 2 µg/mL
MIC (Staphylococcus aureus; Staphylococcus aureus, MRSA, S. aureus 2202 (CA-MRSA), read-out: MIC): 1 µg/mL
MIC (Staphylococcus aureus; Staphylococcus aureus, MRSA, S. aureus 2296 (CA-MRSA), read-out: MIC): 1 µg/mL
MIC (Staphylococcus aureus; Staphylococcus aureus, MSSA, S. aureus 0753 (MSSA), read-out: MIC): 0.5 µg/mL
MIC (Staphylococcus aureus; Staphylococcus aureus, MSSA, S. aureus 2063 (MSSA), read-out: MIC): 0.5 µg/mL
MIC (Klebsiella pneumoniae; K. pneumoniae 1461): 0.5 µg/mL
MIC (Klebsiella pneumoniae; Klebsiella pneumoniae, K. pneumoniae 1340, read-out: MIC): 0.12 µg/mL
MIC (Klebsiella pneumoniae; Klebsiella pneumoniae, K. pneumoniae 1461, read-out: MIC): 0.25 µg/mL
MIC (Klebsiella pneumoniae; Klebsiella pneumoniae, K. pneumoniae 1468 (ESBL), read-out: MIC): 32 µg/mL
MIC (Acinetobacter baumannii; A. baumannii 2602): 2 µg/mL
MIC (Acinetobacter baumannii; Acinetobacter baumannii, A. baumannii 2601, read-out: MIC): 2 µg/mL
MBC range [1, 3]: 32 to 1024 µg/mL
MIC range [1, 3]: 8 to 1024 µg/mL
MBC ([1]; K. pneumonia isolate no. 5427): 16 µg/mL (≈ 26.5 µM)
MIC ([1]; K. pneumonia isolate no. 5427): 4 µg/mL (≈ 6.61 µM)
MBC ([1]; K. pneumonia isolate no. 5436): 1020 µg/mL (≈ 1690 µM)
MIC ([1]; K. pneumonia isolate no. 5436): 1020 µg/mL (≈ 1690 µM)
MBC range (P. aeruginosa; [4]): 16 to 256 µg/mL
MIC range (P. aeruginosa; [4]): 8 to 256 µg/mL
MBC (P. aeruginosa; P. aeruginosa isolate no. 796): 32 µg/mL (≈ 52.9 µM)
MIC (P. aeruginosa; P. aeruginosa isolate no. 796): 16 µg/mL (≈ 26.5 µM)
MBC (P. aeruginosa; P. aeruginosa isolate no. 956): 256 µg/mL (≈ 423 µM)
MIC (P. aeruginosa; P. aeruginosa isolate no. 956): 128 µg/mL (≈ 212 µM)
MBC (P. aeruginosa; P. aeruginosa isolate no. 1019): 64 µg/mL (≈ 106 µM)
MIC (P. aeruginosa; P. aeruginosa isolate no. 1019): 32 µg/mL (≈ 52.9 µM)
MBC (P. aeruginosa; P. aeruginosa isolate no. 1037): 16 µg/mL (≈ 26.5 µM)
MIC (P. aeruginosa; P. aeruginosa isolate no. 1037): 8 µg/mL (≈ 13.2 µM)
kill at 4 hours (HA-MRSA): 1.5 log10
MBC range [2, 5]: 0.125 to 1024 µg/mL
MIC range [2, 5]: 0.125 to 512 µg/mL
MBC ([2]; E. cloacae isolate no. 4073): 512 µg/mL (≈ 847 µM)
MIC ([2]; E. cloacae isolate no. 4073): 256 µg/mL (≈ 423 µM)
MBC ([2]; E. cloacae isolate no. 5420): 128 µg/mL (≈ 212 µM)
MIC ([2]; E. cloacae isolate no. 5420): 64 µg/mL (≈ 106 µM)
